Experiments:
[1] = Storage stability: assay of Aztreonam by HPLC after storage; format: physicochemical
Description: (§1) The Aztreonam L-lysine obtained using these methods was stable in the sense that during 3 months at 2-8° C.:
1. the assay of Aztreonam was maintained constant in the limit 60-66%; and The assay of Aztreonam Lysine salt using the HPLC method was determined as follows: a. Dissolving Aztreonam Lysine salt sample in a mixture of 0.02 M KH2PO4 buffer solution (pH adjusted 3.0 with 25 w/w % phosphoric acid) and methanol (80:20) diluent, b. Injecting the sample solution (ca. 10 μl) into a 50.0 mm×4.6 mm, 3 μm RP-18 HPLC column, c. Isocratic eluting at 1.5 ml/min with a mixture of 0.02 M KH2PO4 buffer solution (pH adjusted 3.0 with 25 w/w % phosphoric acid) and methanol in a 83:17 v/v % ratio. d. Measuring of the amounts of each impurity at 270 nm wavelength with a UV detector and appropriate recording device. e. Calculating of the assay referring to the Aztreonam working standard at a concentration of 100 [g/ml.
In the above method, Aztreonam has a retention time of about 2.3 minutes

[2] = Storage stability: impurity content by HPLC after storage; format: physicochemical
Description: as §1
2. no impurity exceed 0.3 area %.
The impurity content of Aztreonam lysine salt using the HPLC method is determined as follows:
a. Aztreonam Lysine salt sample is dissolved in 0.02 M KH2PO4 buffer solution (pH adjusted 2.0 with 25 w/w % phosphoric acid) diluent,
b. The sample solution (ca. 10 μl) is injected into a 100.0 mm×4.0 mm, 3 μm RP-1 8 HPLC column,
c. Gradient eluting with a mixture of 0.02 M KH2PO4 buffer solution (pH adjusted 3.0 with 25 w/w % phosphoric acid) (A) and acetonitrile (B) according to the following profile:
d. The amounts of each impurity was measured at 230 nm wavelength with a UV detector and appropriate recording device.
e. The amount of each impurity was calculated referring to an Aztreonam working standard at a concentration of […].
In the above method, Aztreonam has a retention time of about 10.2 minutes.

[3] = after storage for three months at about 2-8° C.

Structure (SMILES)	assay of Aztreonam maintained constant in the limit ([1]; during 3 months at 2-8° C.)	no impurity exceed (largest single impurity) ([2]; during 3 months at 2-8° C.) [area %]	maintains at least about ... of the Aztreonam [1, 3]	does not contain any impurity exceeding [2, 3] [area %]
C[C@H]1[C@H](NC(=O)/C(=N\OC(C)(C)C(=O)O)c2csc(N)n2)C(=O)N1S(=O)(=O)O.NCCCC[C@H](N)C(=O)O [Aztreonam L-lysine]	60-66%	≤ 0.3		
C[C@H]1[C@H](NC(=O)/C(=N\OC(C)(C)C(=O)O)c2csc(N)n2)C(=O)N1S(=O)(=O)O.NCCCC[C@H](N)C(=O)O [Example 2, Aztreonam L-lysine salt]			at least 63 weight %	≤ 0.3

— patent US20070167424A1, “Aztreonam L-lysine and methods for the preparation thereof” (priority 2003, published 2007)
